The values that follow come from ChEMBL document CHEMBL1150249, “Antiglioma action of xanthones from Gentiana kochiana: Mechanistic and structure-activity requirements” (Bioorg Med Chem, 2008).

Usually IC50 stands for the midpoint of a concentration-inhibition curve.

Molecules are shown by their SMILES. The source made the active and inactive calls. No cut-off for these calls is given here.

Data set [1] has as its system U-251. As to the kind of experiment: Antiproliferative activity against human U251 cells assessed as cell number after 48 hrs by crystal violet assay. Type of data set: functional, cell-based. The settings on record: U-251, 48 h.
The test system of data set [2] is C6. The data set can be described thus: Antiproliferative activity against rat C6 cells assessed as cell number after 48 hrs by crystal violet assay. Type of data set: functional, cell-based. The note with it: C6, 48 h.
The nature of data set [3]: Inhibition of bovine brain tubulin by microtubule depolymerization assay. On the set-up: species or system Bos taurus.
The test system of data set [4] is C6. The data set can be described thus: Induction necrosis in rat C6 cells at 50 uM after 36 hrs by flow cytometry relative to control. Type of data set: functional. (In general: In flow cytometry, cells or beads pass a laser one at a time.)
For data set [5], the system named is C6. As to the kind of experiment: Antiproliferative activity against rat C6 cells assessed as cell number after 24 hrs by crystal violet assay. Type of data set: functional, cell-based.
Data set [6] is described as follows: Antiproliferative activity against Albino Oxford rat peritoneal macrophages assessed as cell number after 48 hrs by crystal violet assay. The note with it: macrophage. Type of data set: cell-based.
Data set [7] has as its system C6. The data set can be described thus: Cell cycle arrest in rat C6 cells assessed as accumulation at G2/M phase at 50 uM after 24 hrs by flow cytometry relative to control. Type of data set: functional.
Data set [8] concerns C6. The data set can be described thus: Induction of reactive oxygen species production in rat C6 cells at 50 uM after 36 hrs by flow cytometry. Type of data set: functional, cell-based.
Data set [9] has as its system U-251. As to the kind of experiment: Antiproliferative activity against human U251 cells assessed as cell number after 24 hrs by crystal violet assay. Type of data set: functional, cell-based.
Data set [10] has as its system C6. The data set can be described thus: Cell cycle arrest in rat C6 cells assessed as accumulation at G0/G1 phase at 50 uM after 24 hrs by flow cytometry relative to control. Type of data set: functional.
For data set [11], the system named is U-251. The data set can be described thus: Antiproliferative activity against human U251 cells assessed as mitochondrial dehydrogenase activity after 24 hrs by MTT assay. Type of data set: functional, cell-based.
Data set [12] in a line: Antiproliferative activity against Albino Oxford rat primary astrocytes assessed as cell number after 48 hrs by crystal violet assay. Type of data set: cell-based. The settings on record: astrocyte.
The test system of data set [13] is C6. The data set can be described thus: Antiproliferative activity against rat C6 cells assessed as mitochondrial dehydrogenase activity after 72 hrs by MTT assay. Type of data set: functional, cell-based.
Data set [14] deals with C6. As to the kind of experiment: Induction of mitochondrial membrane potential depolarization in rat C6 cells assessed as increase in green to red fluorescence ratio at 50 uM after 24 hrs by flow cytometry. Type of data set: functional, cell-based.
For data set [15], the system named is U-251. As to the kind of experiment: Antiproliferative activity against human U251 cells assessed as mitochondrial dehydrogenase activity after 72 hrs by MTT assay. Type of data set: functional, cell-based. (Formazan colour is commonly taken as a measure of viable cells.)
Data set [16] deals with C6. The data set can be described thus: Induction of apoptosis in rat C6 cells assessed as change in morphology at 50 uM after 48 hrs by bright field microscopy. Type of data set: functional, cell-based.
Data set [17] relates to C6. The data set can be described thus: Cell cycle arrest in rat C6 cells assessed as accumulation at S phase at 50 uM after 24 hrs by flow cytometry relative to control. Type of data set: functional.
Data set [18] deals with U-251. As to the kind of experiment: Antiproliferative activity against human U251 cells assessed as cell number after 72 hrs by crystal violet assay. Type of data set: functional, cell-based.
In data set [19] the test system is C6. As to the kind of experiment: Antiproliferative activity against rat C6 cells assessed as cell number after 72 hrs by crystal violet assay. Type of data set: functional, cell-based.
The test system of data set [20] is C6. As to the kind of experiment: Induction apoptosis in rat C6 cells at 50 uM after 36 hrs by flow cytometry relative to control. Type of data set: functional.
A short description of data set [21]: Antiproliferative activity against Albino Oxford rat primary astrocytes assessed as change in morphology by bright field microscopy. Type of data set: cell-based. The note with it: astrocyte.
The subject of data set [22] is C6. As to the kind of experiment: Induction apoptosis in rat C6 cells assessed as caspase activation at 50 uM after 36 hrs by flow cytometry relative to control. Type of data set: functional.
Data set [23] can be described thus: Antiproliferative activity against Albino Oxford rat peritoneal macrophages assessed as mitochondrial respiration after 48 hrs by MTT assay. Type of data set: cell-based. The note with it: macrophage.
Data set [24] has as its system C6. The data set can be described thus: Antiproliferative activity against rat C6 cells assessed as mitochondrial dehydrogenase activity after 24 hrs by MTT assay. Type of data set: functional, cell-based.
Data set [25] in a line: Antiproliferative activity against Albino Oxford rat primary astrocytes assessed as mitochondrial respiration after 48 hrs by MTT assay. Type of data set: cell-based. The settings on record: astrocyte.
For data set [26], the system named is C6. The data set can be described thus: Antiproliferative activity against rat C6 cells assessed as caspase activation at 50 uM after 36 hrs by flow cytometry in presence of N-acetyl-cysteine. Type of data set: functional, cell-based.
The subject of data set [27] is C6. The data set can be described thus: Antiproliferative activity against rat C6 cells assessed as cell number after 48 hrs by crystal violet assay in presence of N-acetyl-cysteine. Type of data set: functional, cell-based.

For `COc1cc(O[C@@H]2O[C@H](CO)[C@@H](O)[C@H](O)[C@H]2O)c2c(=O)c3c(OC)c(O)ccc3oc2c1`, the IC50 in data set [1] and in data set [2] was over 100 µM throughout.
`COc1cc(O)c2c(=O)c3c(O)ccc(O)c3oc2c1` [BELLIDIFOLIN]: the results for the IC50 in data set [1], in data set [3] and in [2] were over 100 µM, over 50 µM and over 100 µM, respectively.
With `COc1cc(O)c2c(=O)c3c(OC)c(OC)ccc3oc2c1` [DECUSSATIN], the IC50 in [1] and in [2] was over 100 µM each time.
Take `O=c1c2c(O)cc(O)cc2oc2c(O)ccc(O)c12` [DEMETHYLBELLIDIFOLIN]: the IC50 is over 100 µM in [1], over 50 µM in [3] and over 100 µM in [2].
As to `COc1cc(O[C@@H]2O[C@H](CO[C@@H]3OC[C@@H](O)[C@H](O)[C@H]3O)[C@@H](O)[C@H](O)[C@H]2O)c2c(=O)c3c(OC)c(O)ccc3oc2c1` [GENTIABAVAROSIDE], the IC50 in data set [1] and in [2] was over 100 µM each time.
Take `COc1cc(O)c2c(=O)c3c(O)c(O)ccc3oc2c1` [GENTIAKOCHIANIN]: the Activity in [4] is on record as 5.9%; in [6], “Non-toxic”; in data set [7] it was 52.5%; in data set [10] it was 33.7%; in [12] it was “Non-toxic”; in [17] it was 10.6%. In addition, the Activity in data set [20] is given as 24.2%; in data set [21] it was “Non-toxic”; in data set [22] it was 19.7%; in data set [23] it was “Non-toxic”; in data set [25], “Non-toxic”. In addition, the outcome in [5], in data set [8], in data set [9], in data set [11], in data set [13] and in data set [14] was Active. Also, the outcome in [15], in [16], in data set [18], in data set [19] and in data set [24] was Active. For the same compound, the IC50 in [1] was 27.3 µM; in [3], 18 µM; in data set [2], 31.4 µM.
Consider `COc1cc(O)c2c(=O)c3c(OC)c(O)ccc3oc2c1` [GETIACAULEIN], for which the Activity is given as 5.5% in [4]; “Non-toxic” in data set [6]; 18.8% in data set [7]; 73.2% in [10]; “Non-toxic” in data set [12]; 5.8% in data set [17]. Further, the Activity in [20] is recorded as 4.5%; in data set [21], “Non-toxic”; in data set [22] it was 6%; in data set [23], “Non-toxic”; in data set [25] it was “Non-toxic”. Further, the outcome in data set [5], in [8], in data set [9], in data set [26], in [11] and in [13] was Active. The result in [14], in [15], in data set [18], in data set [19], in data set [27] and in [24] was Active. The IC50 in data set [1] is 53.2 µM; in data set [3], over 50 µM; in data set [2], 56.6 µM.
With `COc1cc(O[C@@H]2O[C@H](CO[C@@H]3OC[C@@H](O)[C@H](O)[C@H]3O)[C@@H](O)[C@H](O)[C@H]2O)c2c(=O)c3c(O)c(O)ccc3oc2c1` [ISOGENTIAKOCHIANOSIDE], the IC50 in [1] and in [2] was over 100 µM each time.
For the compound `CC(=O)O[C@H]1C(=O)[C@@]2(C)[C@H]([C@H](OC(=O)c3ccccc3)[C@]3(O)C[C@H](OC(=O)[C@H](O)[C@@H](NC(=O)c4ccccc4)c4ccccc4)C(C)=C1C3(C)C)[C@]1(OC(C)=O)CO[C@@H]1C[C@@H]2O` [PACLITAXEL], in [3], half-maximal inhibition (IC50) was put at 2.4 µM.
